20 compounds from patent publication US10239880B2, “Cyclopenta[d]pyrimidines and substituted cyclopenta[d]pyrimidines as antitubulin and microtubule targeting agents, monocyclic pyrimidines as tubulin inhibitors, and pyrrolopyrimidines as targeted antifolates and tubulin and multiple receptor tyrosine kinase inhibition and antitumor agents” (Duquesne University of the Holy Spirit, priority 2015, dated 2019) can be followed below.

One test deals with Parental HeLa. Kind of test: Antiproliferative activity, parental HeLa. The test is classed as cell-based. The note with it: Homo sapiens, Table 7, read-out: IC50 ± SD Parental HeLa. From the text:
(§1) Another clinically relevant drug resistance mechanism of tubulin-targeting agents is the overexpression of the βIII isotype of tubulin.

A further test relates to Parental SK-OV-3. Nature of the test: Antiproliferative activity, parental SK-OV-3. The format is cell-based. Particulars: Homo sapiens, Table 6, read-out: IC50 ± SD Parental SK-OV-3.
Test [1] has as its system Pgp expressing SK-OV-3 MDR1-6-6. Kind of test: Antiproliferative activity, Pgp expressing SK-OV-3 MDR1-6-6. The test is classed as cell-based. Particulars: Homo sapiens, SK-OV-3; Table 6; read-out: IC50 ± SD Pgp expressing SK-OV-3 MDR1-6-6.
In test [2] the test system is β-III overexpressing HeLa. Kind of test: Antiproliferative activity, β-III overexpressing HeLa. The format is cell-based. The note with it: for IC50: Homo sapiens, HeLa, Table 7, read-out: IC50 ± SD β-III overexpressing HeLa.
Excerpt: as §1

Another test has as its system MDA-MB-435 cancer cells. Nature of the test: Antiproliferative effect in MDA-MB-435 cancer cells (SRB assay). The test is classed as cell-based. For orientation: In SRB staining, fixed cells bind dye roughly in proportion to their protein.
The next test has as its system A-10 cells. Kind of test: Microtubule depolymerization, cell-based phenotypic assay in A-10 cells.
In another test the test system is KB (RFC/FRα/PCFT). Nature of the test: Growth inhibition of KB tumor cells. The test is classed as cell-based, human. The method, then:
Cell proliferation was assayed with CellTiter-Blue™ with a fluorescent plate reader.

A further test concerns PC43-10 (RFC). Kind of test: Proliferation inhibition, RFC-expressing PC43-10 cells. The note with it: Table 11. The test is classed as cell-based, Chinese hamster. The source says: AGF215, AGF234 and AGF263 were compared to AGF23 as inhibitors of proliferation of engineered Chinese hamster ovary (CHO) cells expressing human PCFT (R2/PCFT4), FRα (RT16), or RFC (PC43-10).

A further test concerns MDA-MB-435 xenograft. Kind of test: MDA-MB-435 xenograft trial. The note with it: MDA-MB-435 xenograft, IP 75 mg/kg.
The mark [3] stands for this setting: Table 11, read-out: IC50 RFC/FRα/PCFT KB.
The mark [4] stands for this setting: with folic acid (+FA), read-out: IC50 RFC/FRα/PCFT KB (+FA).
Setting [5] is: Rattus norvegicus, A10, read-out: EC50 in A-10 cells (Concentration that causes 50% tubulin loss in A-10 cells), Table 4, Section II compounds.
[6] abbreviates: Table 3, read-out: MDA-MB-435 IC50.
Setting [7] is: Table 3, read-out: Microtubule depolymerization EC50.
[8] abbreviates: Table 3a, unit inferred, read-out: IC50 ± SD in MDA-435 Cells.
The mark [9] stands for this setting: Table 3a, unit inferred, read-out: EC50 for Microtubule Depolymerization in A · 10 Cells.
Setting [10] is: Homo sapiens, MDA-MB-435, Table 4, Section II compounds, SRB assay, read-out: IC50 ± SD (MDA-MB-435) Cancer cells.

Counter-ions that a name gives are not always drawn. Like-named read-outs stand apart in the source and are kept apart here.

Turning to `Cc1nc2c(c(N(C)c3ccc4c(c3)CCO4)n1)CCC2` [Compound 6], the IC50 in the test with Parental HeLa was 16 ± 1 nM; in the test with Parental SK-OV-3, 18.7 ± 1.2 nM; in test [1], 29.8 ± 5.6 nM; in [2] it was 15 ± 1 nM.
Regarding `CN(c1ccc(OC(F)(F)F)cc1)c1nc(Cl)nc2ccn(C)c12` [Table 3a 29], the IC50 in the test on MDA-MB-435 cancer cells (Homo sapiens, Table 3a, unit inferred, read-out: IC50 ± SD in MDA-435 Cells) is 49.3 ± 1.1 nM. Moreover, the EC50 in the test with A-10 cells (Rattus norvegicus, A10, Table 3a, unit inferred, read-out: EC50 for Microtubule Depolymerization in A · 10 Cells) was 139 nM.
Take `Cc1nc2ccc3ccc(CNc4ccc5c(c4)CN([C@@H](CCC(=O)O)C(=O)O)C5=O)cc3c2c(=O)[nH]1` [GW1843U89]: the IC50 came to 5.8 nM in the test on KB (RFC/FRα/PCFT) (setting [3]) and 32 nM with KB (RFC/FRα/PCFT) (setting [4]).
With `COc1ccc(CN(C)c2nc(C)nc3c2CCC3)cc1` [Section II compound 12], the EC50 in the test with A-10 cells (setting [5]) came out at 11300 nM.
On to `Cc1nc2c(c(N(C)c3ccc(S(C)(=O)=O)cc3)n1)CCC2` [Compd 5], for which the EC50 in the test on A-10 cells (setting [5]) is above 10000 nM.
Turning to `CSc1ccc(N(C)c2nc(C)nc3cc[nH]c23)cc1` [4•HCl], the IC50 in the test on MDA-MB-435 cancer cells (setting [6]) came out at 49.9 ± 10.4 nM. Moreover, the EC50 in the test with A-10 cells (setting [7]) amounted to 1100 nM.
For `COc1ccc([C@@H](C)N(C)c2nc(C)nc3c2CCC3)cc1` [Compound 11], in the test on A-10 cells (setting [5]), the EC50 was above 10000 nM.
For `Nc1nc2[nH]c(CCCSc3ccc(C(=O)N[C@@H](CCC(=O)O)C(=O)O)cc3)cc2c(=O)[nH]1` [AGF263], the IC50 with KB (RFC/FRα/PCFT) (setting [3]) is 0.22 nM; in the test with KB (RFC/FRα/PCFT) (setting [4]), 600 nM; in the test with PC43-10 (RFC) it was above 1000 nM. The “IC50 RFC PC43-10” value in the test with PC43-10 (RFC) is “inactive”.
Regarding `CSc1ccc(N(C)c2nc(C)nc3ccn(C)c23)cc1` [5•HCl], the IC50 in the test with MDA-MB-435 cancer cells (setting [6]) is 6.2 ± 1 nM. Besides, the EC50 with A-10 cells (setting [7]) turned out to be 23 nM.
`COc1cccc2cc(N(C)c3nc(C)nc4ccn(C)c34)ccc12` [Table 3a 14]: the IC50 in the test on MDA-MB-435 cancer cells (setting [8]) worked out at 2000 nM. Further, the EC50 in the test with A-10 cells (setting [9]) was above 10000 nM.
For `CSc1ccc(N(C)c2nc(C)nc3c2CC(C)C3)cc1` (centres unmarked) [Compound 2], the IC50 was 19.6 ± 2 nM with Parental HeLa; 21.2 ± 4 nM with Parental SK-OV-3; 22.7 ± 2.7 nM in [1]; 15 ± 6.5 nM in the test with MDA-MB-435 cancer cells (setting [10]); 14.8 ± 1.5 nM in [2]. In addition, the EC50 in the test on A-10 cells (setting [5]) worked out at 116 nM.
As to `COc1ccc(N(C)c2nc(C)nc3c2CCC3)cc1C` [Compound 7], the IC50 in the test on Parental HeLa amounted to 23 ± 1 nM; in the test on Parental SK-OV-3, 23.9 ± 2.5 nM; in test [1], 47.5 ± 2.4 nM; in test [2], 18.8 ± 1.6 nM.
Consider `COc1ccc([C@H](C)N(C)c2nc(C)nc3c2CCC3)cc1` [Compound 10], for which the EC50 in the test on A-10 cells (setting [5]) is above 10000 nM.
As for `Cc1nc2c(c(N(C)c3ccc(N(C)C)cc3)n1)CCC2` [Compound 9], the IC50 in the test on Parental HeLa stood at 11 ± 1 nM; in the test with Parental SK-OV-3, 13 ± 1 nM; in [1] it was 22.6 ± 2.3 nM; in test [2] it was 9.8 ± 0.9 nM.
For `COc1ccc(N(C)c2ncnc3ccn(C)c23)cc1` [Table 3a 17], the IC50 in the test with MDA-MB-435 cancer cells (setting [8]) is 13.4 ± 0.5 nM. In addition, the EC50 with A-10 cells (setting [9]) came to 27.5 nM.
As for `COc1cccc2cc(N(C)c3nc(Cl)nc4ccn(C)c34)ccc12` [Table 3a 15], the IC50 in the test with MDA-MB-435 cancer cells (setting [8]) is 22.6 nM. The EC50 in the test with A-10 cells (setting [9]) came to 50 nM.
For the compound `CO[C@H]1CC[C@H](N(C)c2nc(C)nc3c2CCC3)CC1` [Compd 13], in the test on A-10 cells (setting [5]), the EC50 was above 10000 nM.
Consider `COc1ccc(N(C)c2nc(C)nc3ccn(C(C)C)c23)cc1.Cl` [AG174], for which the antitumor effects result in the test on MDA-MB-435 xenograft was “highly statistically significant (p<0.001) antitumor effects”.
With `COc1ccc(N(C)c2nc(C)nc3c2CCC3)cc1` [Compound 1], the IC50 in the test with Parental HeLa turned out to be 12 ± 1.2 nM; with Parental SK-OV-3, 11.3 ± 0.2 nM; in test [1], 16.4 ± 0.4 nM; in the test on MDA-MB-435 cancer cells (setting [10]) it was 7 ± 0.7 nM; in test [2], 9.6 ± 0.9 nM. In addition, the EC50 with A-10 cells (setting [5]) amounted to 25.9 nM.
Turning to `CNc1ccc(N(C)c2nc(C)nc3c2CCC3)cc1` [Section II compound 8], the IC50 came to 31 ± 1.6 nM in the test with Parental HeLa, 36.3 ± 3.3 nM with Parental SK-OV-3, 49.7 ± 7.9 nM in [1] and 19.1 ± 3.9 nM in test [2]. Further, the “Rr*” value in [2] (relative resistance, β-III overexpressing HeLa vs parental HeLa) worked out at 0.6.
